The target of series [1] is T1, DDX3X helicase activity (Homo sapiens, UniProt O00571).
T1 construct: Recombinant his-tagged human full length DDX3X; His tag; made in house; host or cells: ShuffleT7 E. coli
Put plainly: FRET-based DDX3X helicase assay. Type of series: biochemical. The note with it: for IC50: FRET helicase assay, recombinant DDX3X, read-out: IC50 ± SD, DDX3X anti-enzymatic (helicase) activity. Here is the method: Recombinant his-tagged human full length DDX3X cloned the E. coli expression vector pET-30a(+). ShuffleT7 E. coli cells were transformed with the plasmid and grown at 37 °C up to OD600 = 0.7. DDX3X expression was induced with 0.5 mM IPTG at 15 °C O/N. Cells were harvested by centrifugation, lysed, and the crude extract was centrifuged at 100,000 g for 60 min at 4 °C in a Beckman centrifuge before being loaded onto a FPLC Ni-NTA column (GE Healthcare, Chicago, IL, USA). The column was equilibrated in Buffer A (50 mM Tris-HCl pH 8.0, 250 mM NaCl, 25 mM Imidazole and 20% glycerol). After extensive washing in Buffer A, the column was eluted with a linear gradient in Buffer A from 25 to 250 mM Imidazole. Proteins in the eluted fractions were visualized on SDS-PAGE and tested for the presence of DDX3X by Western blot with anti-DDX3X A300-475A (Bethyl Laboratories, Montgomery, TX, USA) at 1:4000 dilution in 5% milk. Fractions containing the purest DDX3X protein were pooled and stored at −80 °C.
The dsRNA substrate for the helicase assay was prepared by hybridizing two ss RNA oligonucleotides with the following sequences: • Fluo-FAM 5′ […] 3′ • Qu-BHQ1 5′ […] 3′ • DNA capture 5′ […] 3′.
The sequence in Fluo-FAM complementary to Qu-BHQ1 is underlined. Fluo-FAM carries a 6-carboxyfluorescein fluorophore at its 3′ end, while Qu-BHQ1 carries a Black Hole quencher group at its 5′ end. The DNA capture oligonucleotide is complementary to the Qu-BHQ1 oligonucleotide, but it bears no modifications. A helicase assay using the dsRNA substrate was performed in 20 mM TrisHCl (pH 8), 70 mM KCl, 2 mM MgCl2, 2 mM dithiothreititol, 12 units RNasin (Promega), 2 mM ATP, 50 nM dsRNA, and 100 nM capture strand in 20 μL of reaction volume. The unwinding reaction was started by adding 60 pmols of DDX3X recombinant protein and carried out at 37 °C for 40 min using a LightCycler 480 (Roche, Basel, Switzerland). The fluorescence intensity was recorded every 30 s. Values of fluorescence signal in the presence or in the absence of inhibitor molecules were analyzed by linear interpolation, and the corresponding slope values were used to determine the apparent unwinding rate.
The IC50 values have been calculated from dose–response curves. Data (in triplicate) were plotted and analyzed by least-squares nonlinear regression, according to the method of Marquardt–Levenberg, with the computer program GraphPad Prism 6.0. Data were fitted to the following equation:Eobs = Emax/(1 + (IC50/[I])^n)(1) where E(obs) is the observed enzymatic activity in the presence of each inhibitor dose [I]; E(max) is the maximal enzymatic activity in the absence of the inhibitor; and n is an exponential term to take into account sigmoidal dose–response curves.
All the compounds were tested for their ability to inhibit the helicase activity of DDX3X using a fluorescence resonance energy transfer (FRET)-based assay, as previously described. Values of fluorescence signal in the presence or in the absence of inhibitor molecules were analyzed by linear interpolation (for details, see Methods 2.3.2).

Series [2] relates to U87 cells. Briefly: MTS cytotoxicity assay, U87 cells. Format: cell-based. The note with it: 72 h. Here is the method:
(§1) For CellTiter 96® Aqueous One Solution Cell Proliferation Assay (MTS) (Promega, Madison, WI, USA), cells were seeded at 5 × 10^3 per well in 96-well plates in quadruplicate together a control with no cells to evaluate the background. After 24 h, the culture medium was removed, and fresh medium containing increasing concentrations of chemical compounds was added to cells. […] DMSO was the vehicle used for dilution of the compounds, and its final concentration on cells was less than 0.2%. Medium-only containing wells were included as controls. Cells were incubated with compounds at different concentrations for 72 h, then, 20 µL of CellTiter 96® AQueous One Solution Reagent was added into each well. After 3 h at 37 °C in a humidified, 5% CO2 atmosphere, the absorbance at 492 nm was recorded using an EZREAD400 (Biochrom, Cambridge, United Kingdom) plate reader. The average 490 nm absorbance from the “no cell” control wells was subtracted from all other values to yield background-corrected absorbance. Dose–response curves and CC50 values have been calculated by plotting the absorbance data as a function of inhibitor concentrations and fitting the data by least-squares nonlinear regression, according to the method of Marquardt–Levenberg, with the computer program GraphPad Prism 6.0.
(§2) Cells were incubated with a scalar concentration of DDX3X inhibitors, and after 72 h of treatment, cell viability was assessed by cytotoxicity assay. […] Compounds 4, 6, and BA103 were also evaluated against BJ primary fibroblasts; compound 4 has a cytotoxicity value of 84.7 μM; on the contrary, compounds 6 and BA103 were not toxic up to 200 μM concentration. This further excluded a possible nonspecific cytotoxic effect. […] Due to its interesting profile, compound BA103 was further tested against additional pulmonary (A549), breast (MDA-MB-231), colorectal (HCT-116), osteosarcoma (U2OS), rhabdomyosarcoma (RD18), GBM (DBTRG, U87, and U251) and medulloblastoma (DAOY) cancer cell lines.
(§3) Figure 5 Cytotoxicity of selected compounds. Compounds were assayed on DU-145, PC3, HepG2, Huh-7, HN6, U251, and U87 cell lines. The concentration of the compound, which reduced the number of viable cells by 50% (CC50), was determined by dose–response curve, and the mean CC50 value for each cell line was calculated by triplicate assays (raw data from U87 and U251 cells with dose–response curves used for the calculation of CC50 in Table S1 and Figure S2).
(§4) Table S1: Raw data of optical absorbance at 490 nm from MTS assay in U87 and U251 cells. Tables contain
(§5) means with SD of at least 5 different values that were used for preparation of figure 5.
A general note: Formazan colour is commonly taken as a measure of viable cells.

Series [3] has as its system U251 cells. Briefly: MTS cytotoxicity assay, U251 cells. Type of series: cell-based. The note with it: 72 h. As to the method: as §1, §2, §3, §4, §5
The subject of series [4] is panel of cancer cell lines (Du-145, PC3, HepG2, Huh-7, HN6, U87 and U231). Put plainly: Cytotoxicity screen on panel of cancer cell lines. Format: cell-based. The settings on record: 72 h of treatment. Here is the method:
For CellTiter 96® Aqueous One Solution Cell Proliferation Assay (MTS) (Promega, Madison, WI, USA), cells were seeded at 5 × 10^3 per well in 96-well plates in quadruplicate together a control with no cells to evaluate the background. After 24 h, the culture medium was removed, and fresh medium containing increasing concentrations of chemical compounds was added to cells. The fixed final concentrations were 0.1 μM, 1 μM, 10 μM, and 100 μM. DMSO was the vehicle used for dilution of the compounds, and its final concentration on cells was less than 0.2%. Medium-only containing wells were included as controls. […] After 3 h at 37 °C in a humidified, 5% CO2 atmosphere, the absorbance at 492 nm was recorded using an EZREAD400 (Biochrom, Cambridge, United Kingdom) plate reader. The average 490 nm absorbance from the “no cell” control wells was subtracted from all other values to yield background-corrected absorbance. Dose–response curves and CC50 values have been calculated by plotting the absorbance data as a function of inhibitor concentrations and fitting the data by least-squares nonlinear regression, according to the method of Marquardt–Levenberg, with the computer program GraphPad Prism 6.0.
Cells were incubated with a scalar concentration of DDX3X inhibitors, and after 72 h of treatment, cell viability was assessed by cytotoxicity assay. […]

Six compounds from publication PMC8582824, “Targeting DDX3X Helicase Activity with BA103 Shows Promising Therapeutic Effects in Preclinical Glioblastoma Models” (Cancers, 2021) can be followed below.

T1 sequence (O00571 whole entry): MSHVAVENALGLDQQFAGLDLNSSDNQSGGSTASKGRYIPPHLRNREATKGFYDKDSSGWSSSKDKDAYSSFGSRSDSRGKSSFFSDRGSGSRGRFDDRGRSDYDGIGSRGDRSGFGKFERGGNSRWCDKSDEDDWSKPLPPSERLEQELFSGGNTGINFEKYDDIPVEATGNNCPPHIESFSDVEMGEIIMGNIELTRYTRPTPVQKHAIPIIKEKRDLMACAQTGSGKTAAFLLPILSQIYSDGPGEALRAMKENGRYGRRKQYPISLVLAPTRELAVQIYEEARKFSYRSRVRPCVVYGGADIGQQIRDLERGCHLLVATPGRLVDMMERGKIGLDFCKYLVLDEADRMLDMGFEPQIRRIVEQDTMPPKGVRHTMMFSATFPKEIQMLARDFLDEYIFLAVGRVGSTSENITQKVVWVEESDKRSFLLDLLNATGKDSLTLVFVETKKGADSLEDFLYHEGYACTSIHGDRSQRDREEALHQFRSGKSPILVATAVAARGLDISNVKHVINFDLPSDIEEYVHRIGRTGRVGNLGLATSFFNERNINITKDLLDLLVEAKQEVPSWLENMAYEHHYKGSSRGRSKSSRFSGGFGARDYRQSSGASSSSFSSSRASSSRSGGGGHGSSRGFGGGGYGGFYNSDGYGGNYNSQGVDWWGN

Usually IC50 stands for the point on the concentration scale where inhibition reaches its midpoint. In the case of “1-(4-(4-Butyl-1H-1,2,3-triazol-1-yl)phenyl)-3-(4-methylpyridin-3-yl)urea [Compound 14]”, the concentration for half-maximal inhibition (IC50) in series [1] came out at 2000 ± 300 nM.

With `CC(C)CCc1cn(-c2ccc(NC(=O)Nc3ccccc3C(F)(F)F)cn2)nn1` [Compound 9, 1-(6-(4-Isopentyl-1H-1,2,3-triazol-1-yl)pyridin-3-yl)-3-(2-(trifluoromethyl)phenyl)urea], the IC50 in series [1] was determined as 1100 ± 200 nM.

Consider `CCCCc1cc(-c2ccc(NC(=O)Nc3ccccc3C(F)(F)F)cc2)no1` [Compound 2, 1-(4-(5-Butylisoxazol-3-yl)phenyl)-3-(2-(trifluoromethyl)phenyl)urea], for which the “solubility in assay medium” value in series [1] (during the enzymatic assay) is reported as “precipitated from medium”.

In the case of `CCCCn1nnc(-c2ccc(NC(=O)Nc3ccccc3C)cc2)n1` [Compound 5, 1-(4-(2-Butyl-2H-tetrazol-5-yl)phenyl)-3-(o-tolyl)urea], the “times less active than hit compound 1 (loss of activity)” value in series [1] (DDX3X helicase inhibition relative to compound 1) is recorded as 16 times.

Consider `CCCCc1nnc(-c2ccc(NC(=O)Nc3ccccc3C(F)(F)F)cc2)s1` [Compound 8, 1-(4-(5-Butyl-1,3,4-thiadiazol-2-yl)phenyl)-3-(2-(trifluoromethyl)phenyl)urea], for which, in series [1], the concentration for half-maximal inhibition (IC50) turned out to be 50000 ± 7000 nM. For the same compound, the “mean absorbance at 490 nm (MTS)” value in series [2] (U87, 0,01 uM) is 2,267; in series [2] (U87, 0,1 uM) it was 1,994; in series [2] (U87, 1 uM), 1,965; in series [2] (U87, 10 uM), 1,945; in series [2] (U87, 100 uM) it was 1,054; in series [3] (U251, 0,01 uM) it was 2,363. For the same compound, the “mean absorbance at 490 nm (MTS)” value in series [3] (U251, 0,1 uM) is listed as 2,282; in series [3] (U251, 1 uM), 2,177; in series [3] (U251, 10 uM), 1,806; in series [3] (U251, 100 uM), 0,786. In addition, the “growth inhibition in all the cell lines tested” value in series [4] is recorded as “poorly effective against all the cell lines tested”.

For “1-(4-(4-Isopentyl-1H-1,2,3-triazol-1-yl)phenyl)-3-(4-methylpyridin-3-yl)urea [Compound 13]”, the IC50 in series [1] was found to be 1500 ± 300 nM.
